Key:
[1] = test system: rabbit serum obtained by immunizing with SARS-CoV strain Frankfurt 1; assay type: binding
[2] = test system: control serum Blood-bank (commercial negative donor pooled serum); assay type: binding, human
[3] = test system: control serum LUMC (pooled serum of ten healthy hospital workers); assay type: binding, human

| Sequence | Rabbit serum linear peptides [1] | Rabbit serum looped peptides [1] | Control Serum Blood-Bank Looped peptides [2] | Control serum Blood-bank linear peptides [2] | Control serum LUMC linear peptides [3] | Control serum LUMC looped peptides [3] |
| --- | --- | --- | --- | --- | --- | --- |
| ADPKVYPIILRLGSQ | 0.4 | 0.3 | – | – | – | – |
| AFLLFLVLIMLIIFW | 0.5 | 1.0 | 0.8 | 0.8 | 0.4 | 0.4 |
| AFQSTPIVVQMTKLA | 0.1 | 0.5 | – | – | – | – |
| ALHLVDPQIQLTITR | 0.5 | 0.5 | – | – | – | – |
| AMGQGQNSADPKVYP | 0.1 | 0.6 | – | – | – | – |
| ARAFQSTPIVVQMTK | 0.2 | 0.7 | – | – | – | – |
| ARRNLDSLEARAFQS | 0.1 | 0.5 | – | – | – | – |
| ASNKPHVLEDPCKVQ | 0.8 | 0.9 | – | – | – | – |
| CASNKPHVLEDPCKV | 0.5 | 0.8 | – | – | – | – |
| CFLAFLLFLVLIMLI | 0.0 | 0.6 | 0.8 | 0.6 | 0.3 | 0.4 |
| CISLCSCICTVVQRC | 0.0 | 0.5 | – | – | – | – |
| DAMGQGQNSADPKVY | 0.3 | 0.4 | – | – | – | – |
| DFYLCFLAFLLFLVL | 0.3 | 0.4 | 0.6 | 0.7 | 0.4 | 0.6 |
| DPKVYPIILRLGSQL | 0.1 | 0.4 | – | – | – | – |
| DPQIQLTITRMEDAM | 0.1 | 0.3 | – | – | – | – |
| DSLEARAFQSTPIVV | 0.1 | 0.5 | – | – | – | – |
| EARAFQSTPIVVQMT | 0.1 | 0.4 | – | – | – | – |
| EDAMGQGQNSADPKV | 0.6 | 0.5 | – | – | – | – |
| ELTLIDFYLCFLAFL | 0.4 | 0.6 | 0.6 | 0.7 | 0.5 | 0.7 |
| FLAFLLFLVLIMLII | 0.3 | 0.7 | 0.7 | 0.7 | 0.5 | 0.4 |
| FLLFLVLIMLIIFWF | 0.5 | 0.7 | 0.6 | 0.9 | 0.3 | 0.5 |
| FLVLIMLIIFWFSLE | 0.4 | 0.6 | 0.8 | 0.9 | 0.7 | 0.7 |

| Sequence | Rabbit serum linear peptides [1] | Rabbit serum looped peptides [1] | Control Serum Blood-Bank Looped peptides [2] | Control serum Blood-bank linear peptides [2] | Control serum LUMC linear peptides [3] | Control serum LUMC looped peptides [3] |
| --- | --- | --- | --- | --- | --- | --- |
| FQSTPIVVQMTKLAT | 0.1 | 0.6 | – | – | – | – |
| FYLCFLAFLLFLVLI | 0.3 | 0.6 | 0.7 | 0.8 | 0.4 | 0.6 |
| GQGQNSADPKVYPII | 0.4 | 0.5 | – | – | – | – |
| GQNSADPKVYPIILR | 0.1 | 0.6 | – | – | – | – |
| GSQLSLSMARRNLDS | 0.1 | 0.7 | – | – | – | – |
| HLVDPQIQLTITRME | 0.1 | 0.3 | – | – | – | – |
| IDFYLCFLAFLLFLV | 0.4 | 0.5 | 0.6 | 0.9 | 0.5 | 0.7 |
| IILRLGSQLSLSMAR | 0.6 | 0.5 | – | – | – | – |
| ILRLGSQLSLSMARR | 0.1 | 0.7 | – | – | – | – |
| IQLTITRMEDAMGQG | 0.0 | 0.2 | – | – | – | – |
| ISLCSCICTVVQRCA | 0.1 | 0.5 | – | – | – | – |
| IVLTCISLCSCICTV | 0.1 | 0.6 | – | – | – | – |
| IVVQMTKLATTEELP | 0.2 | 0.4 | – | – | – | – |
| KLLIVLTCISLCSCI | 0.0 | 0.5 | – | – | – | – |
| KVYPIILRLGSQLSL | 1.8 | 0.5 | – | – | – | – |
| LAFLLFLVLIMLIIF | 0.4 | 1.1 | 0.8 | 0.6 | 0.3 | 0.4 |
| LCSCICTVVQRCASN | 0.1 | 1.1 | – | – | – | – |
| LDSLEARAFQSTPIV | 0.1 | 0.5 | – | – | – | – |
| LEARAFQSTPIVVQM | 0.1 | 0.5 | – | – | – | – |
| LGSQLSLSMARRNLD | 0.1 | 0.3 | – | – | – | – |
| LHLVDPQIQLTITRM | 0.5 | 0.6 | – | – | – | – |
| LIVLTCISLCSCICT | 0.1 | 0.5 | – | – | – | – |

| Sequence | Rabbit serum linear peptides [1] | Rabbit serum looped peptides [1] | Control Serum Blood-Bank Looped peptides [2] | Control serum Blood-bank linear peptides [2] | Control serum LUMC linear peptides [3] | Control serum LUMC looped peptides [3] |
| --- | --- | --- | --- | --- | --- | --- |
| LLIVLTCISLCSCIC | 0.1 | 0.5 | – | – | – | – |
| LRLGSQLSLSMARRN | 0.1 | 0.5 | – | – | – | – |
| LSLSMARRNLDSLEA | 0.1 | 0.3 | – | – | – | – |
| LSMARRNLDSLEARA | 0.0 | 0.4 | – | – | – | – |
| LTCISLCSCICTVVQ | 0.1 | 0.2 | – | – | – | – |
| LVDPQIQLTITRMED | 0.1 | 0.2 | – | – | – | – |
| MARRNLDSLEARAFQ | 0.1 | 0.5 | – | – | – | – |
| MDPNQTNVVPPALHL | 1.1 | 0.1 | – | – | – | – |
| MGQGQNSADPKVYPI | 0.1 | 0.6 | – | – | – | – |
| MKLLIVLTCISLCSC | 0.1 | 0.5 | – | – | – | – |
| NLDSLEARAFQSTPI | 0.2 | 0.4 | – | – | – | – |
| NSADPKVYPIILRLG | 0.1 | 0.4 | – | – | – | – |
| PIILRLGSQLSLSMA | 0.1 | 0.5 | – | – | – | – |
| PIVVQMTKLATTEEL | 0.1 | 0.6 | – | – | – | – |
| PKVYPIILRLGSQLS | 0.1 | 0.4 | – | – | – | – |
| PQIQLTITRMEDAMG | 0.0 | 0.2 | – | – | – | – |
| QGQNSADPKVYPIIL | 0.1 | 0.5 | – | – | – | – |
| QIQLTITRMEDAMGQ | 0.1 | 0.2 | – | – | – | – |
| QLSLSMARRNLDSLE | 0.1 | 0.3 | – | – | – | – |
| QLTITRMEDAMGQGQ | 0.1 | 0.4 | – | – | – | – |
| QNSADPKVYPIILRL | 0.1 | 0.1 | – | – | – | – |
| QSTPIVVQMTKLATT | 0.0 | 0.6 | – | – | – | – |

| Sequence | Rabbit serum linear peptides [1] | Rabbit serum looped peptides [1] | Control Serum Blood-Bank Looped peptides [2] | Control serum Blood-bank linear peptides [2] | Control serum LUMC linear peptides [3] | Control serum LUMC looped peptides [3] |
| --- | --- | --- | --- | --- | --- | --- |
| RAFQSTPIVVQMTKL | 0.1 | 0.7 | – | – | – | – |
| RLGSQLSLSMARRNL | 0.1 | 2.5 | – | – | – | – |
| RNLDSLEARAFQSTP | 0.3 | 0.5 | – | – | – | – |
| RRNLDSLEARAFQST | 0.3 | 0.5 | – | – | – | – |
| SADPKVYPIILRLGS | 0.1 | 0.4 | – | – | – | – |
| SLCSCICTVVQRCAS | 0.1 | 0.2 | – | – | – | – |
| SLEARAFQSTPIVVQ | 0.1 | 0.6 | – | – | – | – |
| SLSMARRNLDSLEAR | 0.1 | 0.4 | – | – | – | – |
| SMARRNLDSLEARAF | 0.1 | 0.4 | – | – | – | – |
| SNKPHVLEDPCKVQH | 0.8 | 0.4 | – | – | – | – |
| SQLSLSMARRNLDSL | 0.1 | 0.4 | – | – | – | – |
| STPIVVQMTKLATTE | 0.1 | 0.5 | – | – | – | – |
| TCISLCSCICTVVQR | 0.0 | 0.5 | – | – | – | – |
| TPIVVQMTKLATTEE | 0.1 | 0.4 | – | – | – | – |
| TTEELPDEFVVVTAK | 0.0 | 0.5 | – | – | – | – |
| VDPQIQLTITRMEDA | 0.0 | 0.4 | – | – | – | – |
| VLTCISLCSCICTVV | 0.0 | 0.4 | – | – | – | – |
| VYPIILRLGSQLSLS | 0.6 | 1.0 | – | – | – | – |
| YPIILRLGSQLSLSM | 0.2 | 0.4 | – | – | – | – |

— patent publication US20060154243A1 (priority 2003, published 2006)
